Assay results: publication PMC8834506, “Optimization of Thymidine Kinase-Based Safety Switch for Neural Cell Therapy” (Cells, 2022)
“Also recorded” adds a separate entry of the source. Read-outs that look alike come from different tables or passages of the source.

Experiments:
[1] = system: hESC (HS420) expressing Ki67-SR39h; test: ATP-based cell survival assay, nucleoside-induced cell death; settings: for EC50: SR39h under Ki67 promoter
[2] = system: host cell DNA; settings: cited from earlier work
[3] = system: non-transduced hESC colonies; test: Morphology and size of hESC colonies upon nucleoside treatment; assay type: cell-based, human
Source text: We next investigated the impact of ACV, PCV, and GCV on non-transduced hESC and neuroprogenitors (proliferating ReNcells). […] To further understand the impact of nucleoside analogs on non-transduced cells, we performed γ-H2A.X immunostaining (Figure 6B). There was a graded response, virtually identical in hESC and in neuroprogenitors. […] In addition, we investigated the morphology and size of non-transduced hESC colonies upon nucleoside treatment. […] Taken together, our findings confirm considerable toxicity of GCV, even in the absence of viral TK. Note that this was not the case for PCV despite the fact that it is a potent inducer of cell death in thymidine kinase-expressing cells.
(§1) Cells were exposed to 100 µM of the respective nucleoside for 48 h. DNA damage was monitored using γ-H2A.X marker in yellow and nuclei were counterstained with Hoechst. The white box in the first column indicates the area of the zoom for the hESC colonies.

[4] = assay type: in vivo, NOD/SCID mice; settings: 40 mg/kg/day i.p.; weighed daily during treatment
Method: (§2) Given the encouraging in vitro results, we next investigated whether this newly developed safety switch system (SR39h and different nucleoside analogs) could prevent tumor formation in vivo. For this purpose, 20,000 undifferentiated Ki67-SR39h-expressing hESC were transplanted into the striatum of NOD/SCID mice. […] A group of control mice received only a NaCl solution. […] Human cytoplasmic marker (HCM) staining confirmed the human (i.e., hESC-derived) origin of these tumors. Tumors cells were predominantly Ki67 positive with a rosette organization as frequently found in tumors of the central nervous system.
Supplementary Figure S3: Mice weight
Mice were weighed daily during guanosine analogs treatment to identify differences in weight gain/loss between treated groups. No differences were observed between treatment groups.
Supplementary Figure S4: in vivo validation of suicide gene. Coronal section of NOD/SCID mice 47 days after injection of hESC expressing the SR39h thymidine kinase variant. Mice were treated for 2x5 days with the respective nucleoside analogs (see Methods). Upper lane: ACV; middle lane: PCV; lower lane: GCV. Sections were colored with cresyl violet and dark purple staining reflects a high density of nuclei. Scale bar 1000 µm. […]

[5] = system: non-transduced hESC; assay type: cell-based; settings: 96 h nucleoside exposure; up to 100 µM
Method: as §1
Plates were washed twice with DMEM-F12 (Gibco, ThermoFisher; Geneva, Switzerland), then coated with Matrigel (Corning, Lonay, Switzerland) 1/100 in DMEM-F12 and incubate 2 h at 37°. Cells were detached using Accutase and seeded at 2000 cells/well in serum-free culture medium containing 10 µM of ROCK inhibitor. At 24 h, the cell culture was continued without ROCK inhibitor. […] Drugs were prepared by serial dilution (two-fold) in 100% DMSO. At 48 h after seeding, cells were exposed to antiviral drugs for 96 h. For EC50 assays, the medium was changed daily for 4 days, then cell viability was assessed using an ATP-based assay. EC50 values for each construct were calculated using a four parameters equation (GraphPad, Prism8, San Diego, CA, USA). The same procedure was used for the cell death kinetic determinations except the treatment duration. Luminescence was measured using Spectra L384/L96 (0.2 sec exposure, Molecular devices, Biberach an der Riß, Germany).

[6] = system: Ki67-SR39h-expressing hESC transplanted into the striatum; test: In vivo prevention of tumor formation after striatal transplantation; parameters: species or system NOD/SCID mice; settings: 40 mg/kg/day i.p., 47 days post-transplantation
Method: as §2
Figure 7 in vivo validation of suicide gene and inducers. (A) Schematic diagram of the experimental setup to detect tumor elimination in vivo. NOD/SCID mice were transplanted with 20,000 SR39h-expressing hESC through stereotactic injection into the striatum. 48 h post transplantation, mice were intraperitoneally injected with the respective nucleoside (40 mg/kg) for five consecutive days a week during a two-week period. Control mice were treated with a NaCl solution. Mice were sacrificed 47 days post transplantation. (B) Cresyl violet staining of a brain section. […] (C) Immunostaining of brain coronal section (sections from ACV-, PCV-, and GCV-treated mice are shown in the upper, middle, and lower row, respectively). Staining with the proliferation marker Ki67 and with the human cytoplasmic marker (HCM) are shown in red and green, respectively. Nuclei were counterstained with DAPI (blue). White arrows show residual proliferative cells form the graft. A merge of the three staining is shown in the right column. Each experimental group consisted of five mice.
Single cell transplant: Undifferentiated HS420 (expressing TK variants) were detached by TrypLE and concentrated at 20,000 cells/μL in Stemflex. 20,000 cells (1 μL) were injected into the right striatum using a 26-G Hamilton syringe (Hamilton, BGB Analytik AG, Boeckten, Switzerland). Injection coordinates for striatum were: bregma = 0.6 mm, mediolateral = 2 mm, dorsoventral = 3 mm.
Thirty days after termination of treatment with the respective antiviral nucleoside analogs or control (NaCl), mice were sacrificed by intracardiac perfusion of paraformaldehyde 4% in PBS. Brains were removed from the skull and post-fixed in the same fixative overnight.
Paraffin embedded brains were sectioned (coronal sections 7 µm thick) and processed for hematoxylin and eosin or cresyl violet staining stain aiming morphological assessment of the graft. Sections were mounted in Eukitt (Kindler GmbH, Germany) and observed under microscope (see below)
The primary antibody diluted in PBS with 0.3% Triton was incubated at 4 °C overnight in agitation. […]

[7] = system: sister chromatid exchange; parameters: method as in PMID 10719044; settings: at concentrations far below those impairing the proliferative activity; cited from earlier work
[8] = Homo sapiens, 96 h, read-out: EC50 (cell survival), 96 h nucleoside exposure

Row | Compound | Cell death induction in SR39h-expressing cells (in words) ([1]; 96 h nucleoside exposure) | EC50 [1, 8] | Fragmentation of host cell DNA [2] | Effect on morphology and size of colonies [3] | Differences in weight among groups [4] | Toxicity in non-transduced hESC [5] | Tumor formation ([6]; five consecutive days a week for two weeks, from 2 days after transplantation, five mice per group) | Mice with a small nuclei-rich region at the graft site ([6]; cresyl violet staining) | Induction of sister chromatid exchange [7] | EC50 ([1]; read-out: EC50 (cell survival), 96 h nucleoside exposure)
1 | Nc1nc2c(ncn2COCCO)c(=O)[nH]1 [ACV, acyclovir] | induced only very little cytotoxicity | 2900 nM | no fragmentation of host cell DNA | did not observe an effect | no significant differences in weight | – | – | – | – | –
2 | O=c1[nH]c(=O)n([C@H]2C[C@H](O)[C@@H](CO)O2)cc1/C=C/Br [BRVD, brivudine] | induced only very little cytotoxicity | ~60000 nM | – | – | – | – | – | – | – | –
3 | CC(=O)OCC(CCn1cnc2cnc(N)nc21)COC(C)=O [FAM, famciclovir] | did not show any toxic effects; also recorded: did not show any activity | > 100000 nM | – | – | – | – | – | – | – | –
4 | Nc1nc2c(ncn2CCC(CO)CO)c(=O)[nH]1 [PCV, penciclovir] | strong suicide inducers | 2.4 nM | induce fragmentation of host cell DNA | did not observe an effect | no significant differences in weight | did not observe toxicity | prevented tumor formation; also recorded: no major tumors; also recorded: impressive anti-tumor activities | small nucleus-rich region in one of the PCV-treated mice; also recorded: one out of five | not | –
5 | CC(C)[C@H](N)C(=O)OCC(CO)OCn1cnc2c(=O)nc(N)[nH]c21 (stereo partly drawn) [Val-GCV, valganciclovir] | relatively weak, but clearly discernible activity | 31 nM | – | – | – | – | – | – | – | 32 nM
